From ChEMBL document CHEMBL3885861, “Open TG-GATES”

Species: Rattus norvegicus
Assay: Open TG-GATES - Regimen: Daily Repeat
Type: toxicity, organism-based, Sprague-Dawley
Set-up: regimen Daily Repeat, gender Male, age 6 weeks
Conditions: in vivo, po, route gavage; for APTT / Bas / Eos / Fbg / Hb / Ht / Lym / MCH / MCHC / MCV / Mono / Neu / PT / Plat / RBC / Ret / WBC: tissue Blood; for KIDNEY_L / KIDNEY_R / KIDNEY_TOTAL: tissue Kidney; for LIVER: tissue Liver; for A/G / ALP / ALT / AST / BUN / CRE / Ca / Cl / DBIL / GLC / IP / K / LDH / Na / PL / RALB / TBIL / TC / TG / TP / gamma-GTP: tissue Plasma
[1] = 0 mg/kg, 72 h, dose level Control, time 3 day
[2] = 0 mg/kg, […], dose level Control, time 7 day
[3] = 0 mg/kg, […], dose level Control, time 14 day
[4] = 0 mg/kg, […], dose level Control, time 28 day
[5] = 100 mg/kg, 72 h, dose level Low, time 3 day
[6] = 100 mg/kg, […], dose level Low, time 7 day
[7] = 100 mg/kg, […], dose level Low, time 14 day
[8] = 100 mg/kg, […], dose level Low, time 28 day

CC(=O)[C@@]1(O)CC[C@H]2[C@@H]3C=C(Cl)C4=CC(=O)CC[C@]4(C)[C@H]3CC[C@@]21C [CHLORMADINONE]
TERMINAL_BW [1]: 240.6 g
APTT [1]: 23.6 s
Bas [1]: 0%
Eos [1]: 1%
Fbg [1]: 295 mg/dL
Hb [1]: 13.3 g/dL
Ht [1]: 40.9%
Lym [1]: 77.6%
MCH [1]: 20.3 pg
MCHC [1]: 32.6%
MCV [1]: 62.4 fL
Mono [1]: 2.6%
Neu [1]: 18.4%
PT [1]: 15.6 s
Plat [1]: 116.7 x10_4/uL
RBC [1]: 656 x10_4/ul
Ret [1]: 6.4%
WBC [1]: 122.2 x10_2/uL
KIDNEY_L [1]: 1 g
KIDNEY_R [1]: 1 g
KIDNEY_TOTAL [1]: 2 g
LIVER [1]: 10.8 g
A/G [1]: 1.2
ALP [1]: 1828 IU/L
ALT [1]: 43.8 IU/L
AST [1]: 82 IU/L
BUN [1]: 18.8 mg/dL
CRE [1]: 0.2 mg/dL
Ca [1]: 10.8 mg/dL
Cl [1]: 105.8 meq/L
DBIL [1]: 0 mg/dL
GLC [1]: 190.6 mg/dL
IP [1]: 7 mg/dL
K [1]: 4.3 meq/L
LDH [1]: 300.6 IU/L
Na [1]: 141.6 meq/L
PL [1]: 151.2 mg/dL
RALB [1]: 3 g/dL
TBIL [1]: 0.008 mg/dL
TC [1]: 72.2 mg/dL
TG [1]: 114.8 mg/dL
TP [1]: 5.4 g/dL
gamma-GTP [1]: 1.4 IU/L
TERMINAL_BW [2]: 267.1 g
TERMINAL_BW [3]: 325.5 g
TERMINAL_BW [4]: 410.9 g
APTT [2]: 24.1 s
Bas [2]: 0%
Eos [2]: 0.8%
Fbg [2]: 337 mg/dL
Hb [2]: 13.8 g/dL
Ht [2]: 41.5%
Lym [2]: 80.8%
MCH [2]: 20.3 pg
MCHC [2]: 33.1%
MCV [2]: 61.1 fL
Mono [2]: 2.2%
Neu [2]: 15.2%
PT [2]: 15.6 s
Plat [2]: 112.3 x10_4/uL
RBC [2]: 680 x10_4/ul
Ret [2]: 5.6%
WBC [2]: 129.9 x10_2/uL
APTT [3]: 23.6 s
Bas [3]: 0%
Eos [3]: 0.8%
Fbg [3]: 320.6 mg/dL
Hb [3]: 14 g/dL
Ht [3]: 41.9%
Lym [3]: 80.8%
MCH [3]: 19.9 pg
MCHC [3]: 33.5%
MCV [3]: 59.5 fL
Mono [3]: 2.2%
Neu [3]: 15.2%
PT [3]: 15.4 s
Plat [3]: 100.4 x10_4/uL
RBC [3]: 704 x10_4/ul
Ret [3]: 5.2%
WBC [3]: 126.8 x10_2/uL
APTT [4]: 24.8 s
Bas [4]: 0%
Eos [4]: 0.8%
Fbg [4]: 325 mg/dL
Hb [4]: 15.2 g/dL
Ht [4]: 44%
Lym [4]: 82.2%
MCH [4]: 19.5 pg
MCHC [4]: 34.4%
MCV [4]: 56.5 fL
Mono [4]: 2%
Neu [4]: 14.2%
PT [4]: 15.5 s
Plat [4]: 100.5 x10_4/uL
RBC [4]: 779 x10_4/ul
Ret [4]: 3%
WBC [4]: 118.3 x10_2/uL
KIDNEY_L [2]: 1.1 g
KIDNEY_R [2]: 1.1 g
KIDNEY_TOTAL [2]: 2.2 g
KIDNEY_L [3]: 1.2 g
KIDNEY_R [3]: 1.2 g
KIDNEY_TOTAL [3]: 2.5 g
KIDNEY_L [4]: 1.4 g
KIDNEY_R [4]: 1.4 g
KIDNEY_TOTAL [4]: 2.9 g
LIVER [2]: 12.3 g
LIVER [3]: 14.3 g
LIVER [4]: 17.2 g
A/G [2]: 1.2
ALP [2]: 1354.8 IU/L
ALT [2]: 39.4 IU/L
AST [2]: 67.8 IU/L
BUN [2]: 18.8 mg/dL
CRE [2]: 0.2 mg/dL
Ca [2]: 10.8 mg/dL
Cl [2]: 105.8 meq/L
DBIL [2]: 0 mg/dL
GLC [2]: 200.8 mg/dL
IP [2]: 7 mg/dL
K [2]: 4.2 meq/L
LDH [2]: 158.4 IU/L
Na [2]: 140.6 meq/L
PL [2]: 147.2 mg/dL
RALB [2]: 3.1 g/dL
TBIL [2]: 0.01 mg/dL
TC [2]: 76 mg/dL
TG [2]: 114.8 mg/dL
TP [2]: 5.7 g/dL
gamma-GTP [2]: 2.2 IU/L
A/G [3]: 1.1
ALP [3]: 1391 IU/L
ALT [3]: 37.4 IU/L
AST [3]: 64.6 IU/L
BUN [3]: 17.6 mg/dL
CRE [3]: 0.2 mg/dL
Ca [3]: 10.6 mg/dL
Cl [3]: 107 meq/L
DBIL [3]: 0 mg/dL
GLC [3]: 188 mg/dL
IP [3]: 6.6 mg/dL
K [3]: 4 meq/L
LDH [3]: 156.6 IU/L
Na [3]: 142.2 meq/L
PL [3]: 137.4 mg/dL
RALB [3]: 3 g/dL
TBIL [3]: 0.016 mg/dL
TC [3]: 69.6 mg/dL
TG [3]: 112.2 mg/dL
TP [3]: 5.7 g/dL
gamma-GTP [3]: 2.2 IU/L
A/G [4]: 1
ALP [4]: 988 IU/L
ALT [4]: 44.4 IU/L
AST [4]: 73.4 IU/L
BUN [4]: 21.6 mg/dL
CRE [4]: 0.2 mg/dL
Ca [4]: 10.6 mg/dL
Cl [4]: 103.8 meq/L
DBIL [4]: 0 mg/dL
GLC [4]: 201.4 mg/dL
IP [4]: 6.6 mg/dL
K [4]: 4.4 meq/L
LDH [4]: 217.4 IU/L
Na [4]: 141.2 meq/L
PL [4]: 131 mg/dL
RALB [4]: 3.1 g/dL
TBIL [4]: 0.01 mg/dL
TC [4]: 63.2 mg/dL
TG [4]: 112.4 mg/dL
TP [4]: 6.3 g/dL
gamma-GTP [4]: 2.2 IU/L
TERMINAL_BW [5]: 229.4 g
APTT [5]: 26.3 s
Bas [5]: 0%
Eos [5]: 1%
Fbg [5]: 311.6 mg/dL
Hb [5]: 14.1 g/dL
Ht [5]: 42.6%
Lym [5]: 80.4%
MCH [5]: 20.1 pg
MCHC [5]: 33.1%
MCV [5]: 60.6 fL
Mono [5]: 2.4%
Neu [5]: 15.6%
PT [5]: 15.3 s
Plat [5]: 122.1 x10_4/uL
RBC [5]: 702.6 x10_4/ul
Ret [5]: 5.8%
WBC [5]: 113 x10_2/uL
KIDNEY_L [5]: 1 g
KIDNEY_R [5]: 1 g
KIDNEY_TOTAL [5]: 2 g
LIVER [5]: 10.5 g
A/G [5]: 1.3
ALP [5]: 1589 IU/L
ALT [5]: 54 IU/L
AST [5]: 72.8 IU/L
BUN [5]: 15.8 mg/dL
CRE [5]: 0.2 mg/dL
Ca [5]: 10.7 mg/dL
Cl [5]: 106.2 meq/L
DBIL [5]: 0 mg/dL
GLC [5]: 192.4 mg/dL
IP [5]: 7.4 mg/dL
K [5]: 4.5 meq/L
LDH [5]: 171.4 IU/L
Na [5]: 141.6 meq/L
PL [5]: 160.2 mg/dL
RALB [5]: 3.1 g/dL
TBIL [5]: 0.006 mg/dL
TC [5]: 74 mg/dL
TG [5]: 129.4 mg/dL
TP [5]: 5.5 g/dL
gamma-GTP [5]: 1.6 IU/L
TERMINAL_BW [6]: 252.1 g
TERMINAL_BW [7]: 293.5 g
TERMINAL_BW [8]: 362.8 g
APTT [6]: 27.7 s
Bas [6]: 0%
Eos [6]: 1%
Fbg [6]: 343.2 mg/dL
Hb [6]: 14.5 g/dL
Ht [6]: 43.2%
Lym [6]: 84%
MCH [6]: 20.2 pg
MCHC [6]: 33.6%
MCV [6]: 60.1 fL
Mono [6]: 2.2%
Neu [6]: 12%
PT [6]: 15.2 s
Plat [6]: 133.1 x10_4/uL
RBC [6]: 720.2 x10_4/ul
Ret [6]: 4.2%
WBC [6]: 118.1 x10_2/uL
APTT [7]: 27.9 s
Bas [7]: 0%
Eos [7]: 0.8%
Fbg [7]: 327.6 mg/dL
Hb [7]: 14.8 g/dL
Ht [7]: 43.9%
Lym [7]: 82%
MCH [7]: 19.5 pg
MCHC [7]: 33.8%
MCV [7]: 57.6 fL
Mono [7]: 2%
Neu [7]: 14.6%
PT [7]: 15.2 s
Plat [7]: 103.8 x10_4/uL
RBC [7]: 762.8 x10_4/ul
Ret [7]: 3.6%
WBC [7]: 100.2 x10_2/uL
APTT [8]: 27.1 s
Bas [8]: 0%
Eos [8]: 1%
Fbg [8]: 303.4 mg/dL
Hb [8]: 15.5 g/dL
Ht [8]: 45.1%
Lym [8]: 84.8%
MCH [8]: 19.2 pg
MCHC [8]: 34.4%
MCV [8]: 55.7 fL
Mono [8]: 1.6%
Neu [8]: 11.4%
PT [8]: 14.9 s
Plat [8]: 95 x10_4/uL
RBC [8]: 809 x10_4/ul
Ret [8]: 2.2%
WBC [8]: 106.1 x10_2/uL
KIDNEY_L [6]: 1.1 g
KIDNEY_R [6]: 1.1 g
KIDNEY_TOTAL [6]: 2.2 g
KIDNEY_L [7]: 1.1 g
KIDNEY_R [7]: 1.1 g
KIDNEY_TOTAL [7]: 2.3 g
KIDNEY_L [8]: 1.3 g
KIDNEY_R [8]: 1.3 g
KIDNEY_TOTAL [8]: 2.5 g
LIVER [6]: 11.1 g
LIVER [7]: 12 g
LIVER [8]: 14.2 g
A/G [6]: 1.2
ALP [6]: 1694.8 IU/L
ALT [6]: 46.4 IU/L
AST [6]: 74.6 IU/L
BUN [6]: 16.2 mg/dL
CRE [6]: 0.2 mg/dL
Ca [6]: 10.7 mg/dL
Cl [6]: 106.8 meq/L
DBIL [6]: 0 mg/dL
GLC [6]: 185.4 mg/dL
IP [6]: 7.2 mg/dL
K [6]: 4.2 meq/L
LDH [6]: 148.4 IU/L
Na [6]: 140.6 meq/L
PL [6]: 155.2 mg/dL
RALB [6]: 3.1 g/dL
TBIL [6]: 0.002 mg/dL
TC [6]: 67.4 mg/dL
TG [6]: 200.6 mg/dL
TP [6]: 5.7 g/dL
gamma-GTP [6]: 2 IU/L
A/G [7]: 1.2
ALP [7]: 1379.4 IU/L
ALT [7]: 44.8 IU/L
AST [7]: 72.8 IU/L
BUN [7]: 17.2 mg/dL
CRE [7]: 0.2 mg/dL
Ca [7]: 10.3 mg/dL
Cl [7]: 107.8 meq/L
DBIL [7]: 0 mg/dL
GLC [7]: 183.8 mg/dL
IP [7]: 6.5 mg/dL
K [7]: 4.2 meq/L
LDH [7]: 144.4 IU/L
Na [7]: 142.2 meq/L
PL [7]: 142.6 mg/dL
RALB [7]: 3.1 g/dL
TBIL [7]: 0.006 mg/dL
TC [7]: 69.2 mg/dL
TG [7]: 142.2 mg/dL
TP [7]: 5.7 g/dL
gamma-GTP [7]: 2 IU/L
A/G [8]: 1.1
ALP [8]: 1170.6 IU/L
ALT [8]: 46.8 IU/L
AST [8]: 66.6 IU/L
BUN [8]: 18.8 mg/dL
CRE [8]: 0.2 mg/dL
Ca [8]: 10.5 mg/dL
Cl [8]: 105.8 meq/L
DBIL [8]: 0 mg/dL
GLC [8]: 192.8 mg/dL
IP [8]: 6.5 mg/dL
K [8]: 4.2 meq/L
LDH [8]: 142 IU/L
Na [8]: 142 meq/L
PL [8]: 155.4 mg/dL
RALB [8]: 3.1 g/dL
TBIL [8]: 0.006 mg/dL
TC [8]: 73.2 mg/dL
TG [8]: 178 mg/dL
TP [8]: 6 g/dL
gamma-GTP [8]: 2.2 IU/L
